Assays:
Assay type in all cases: in vivo
[1] = tested on: blackgrass (Alopecurus myosuroides); assay: Test B pre-/postemergence; parameters: key: 0 is no effect; 10 is complete control
Procedure, shortened: (§1)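 Scored visually 0 (none) to 10 (complete control) against untreated plants after twelve to sixteen greenhouse days. Test chemicals, formulated in surfactant-containing non-phytotoxic solvent, applied to soil after planting and, separately, onto 1- to 4-leaf (2–18 cm) plants.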

[2] = tested on: broadleaf signalgrass (Brachiaria decumbens); assay: Test B pre-/postemergence; parameters: key: 0 is no effect; 10 is complete control
Procedure, shortened: as §1

[3] = tested on: bamyardgrass (Echinochloa crus-galli); assay: Test B flood test
Procedure, shortened: (§2)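 Flood test on plants grown to the 2-leaf stage; treated plants kept in greenhouse twelve to sixteen days, then visually rated against controls on a 0 (no effect) to 10 (complete control) scale.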

[4] = tested on: duck salad (Heteranthera limosa); assay: Test B flood test
Procedure, shortened: as §2

rice (Oryza sativa) = assay: Test B flood test
Procedure, shortened: as §2

[5] = tested on: smallflower flatsedge (Cyperus difformis); assay: Test B flood test
Procedure, shortened: as §2

[6] = tested on: cocklebur (Xanthium strumarium); assay: Test C; parameters: key: 0 was no effect; 100 was complete control; details: PREEMERGENCE
[7] = tested on: common ragweed (Ambrosia elatior); assay: Test C; parameters: key: 0 was no effect; 100 was complete control; details: PREEMERGENCE
[8] = tested on: cotton (Gossypium hirsutum); assay: Test C; parameters: key: 0 was no effect; 100 was complete control; details: PREEMERGENCE
[9] = tested on: field bindweed (Convolvulus arvensis); assay: Test C; parameters: key: 0 was no effect; 100 was complete control; details: PREEMERGENCE
[10] = tested on: purple nutsedge (Cyperus rotundus); assay: Test C; parameters: key: 0 was no effect; 100 was complete control; details: PREEMERGENCE
[11] = Rate 62 g/ha, Postemergence (flood test)
[12] = Rate 125 g/ha, Postemergence section (flood test species)
[13] = Rate 250 g/ha, Postemergence (flood test species)
[14] = Rate 500 g/ha, Postemergence (flood test species)

## Cc1cnc(-n2ccc(C(F)(F)F)n2)nc1Cn1ccc(C(F)(F)F)n1 [Compound 52]
[1]; Rate 62 g/ha, Postemergence
  Plant response rating, Blackgrass: 5
[1]; Rate 62 g/ha, Preemergence
  Blackgrass plant response rating: 5
[1]; Rate 125 g/ha, Postemergence
  Blackgrass plant response rating: 9
[1]; Rate 125 g/ha, Preemergence
  Plant response rating, Blackgrass: 8
[1]; Rate 250 g/ha, Postemergence
  Plant response rating, Blackgrass: 9
[1]; Rate 250 g/ha, Preemergence
  Plant response rating, Blackgrass: 10
[1]; Rate 500 g/ha, Postemergence
  Plant response rating, Blackgrass: 9
[1]; Rate 500 g/ha, Preemergence
  Plant response rating, Blackgrass: 10
[2]; Rate 62 g/ha, Postemergence
  Plant response rating, B. signalgrass: 4
[2]; Rate 62 g/ha, Preemergence
  B. signalgrass plant response rating: 8
[2]; Rate 125 g/ha, Postemergence
  B. signalgrass plant response rating: 9
[2]; Rate 125 g/ha, Preemergence
  Plant response rating, B. signalgrass: 9
[2]; Rate 250 g/ha, Postemergence
  Plant response rating, B. signalgrass: 9
[2]; Rate 250 g/ha, Preemergence
  Plant response rating, B. signalgrass: 10
[2]; Rate 500 g/ha, Postemergence
  Plant response rating, B. signalgrass: 9
[2]; Rate 500 g/ha, Preemergence
  Plant response rating, B. signalgrass: 10
[3]; [11]
  Plant response rating, Barnyardgrass: 5
[3]; [12]
  Barnyardgrass plant response rating: 6
[3]; [13]
  Plant response rating, Barnyardgrass: 7
[3]; [14]
  Plant response rating, Barnyardgrass: 8
[4]; [11]
  Plant response rating, Ducksalad: 9
[4]; [12]
  Ducksalad plant response rating: 9
[4]; [13]
  Plant response rating, Ducksalad: 9
[4]; [14]
  Plant response rating, Ducksalad: 9
Rice (Oryza sativa); [11]
  Plant response rating, Rice: 3
Rice (Oryza sativa); [12]
  Rice plant response rating: 5
Rice (Oryza sativa); [13]
  Plant response rating, Rice: 7
Rice (Oryza sativa); [14]
  Plant response rating, Rice: 7
[5]; [11]
  Plant response rating, S. Flatsedge: 9
[5]; [12]
  S. Flatsedge plant response rating: 9
[5]; [13]
  Plant response rating, S. Flatsedge: 9
[5]; [14]
  Plant response rating, S. Flatsedge: 9
[6]; Rate 70 g/ha
  Plant response rating, Cocklebur: 0
[6]; Rate 140 g/ha
  Plant response rating, Cocklebur: 20
[7]; Rate 35 g/ha
  Plant response rating, Common ragweed: 40
[7]; Rate 70 g/ha
  Plant response rating, Common ragweed: 60
[7]; Rate 140 g/ha
  Plant response rating, Common ragweed: 100
[8]; Rate 35 g/ha
  Plant response rating, Cotton: 0
[8]; Rate 70 g/ha
  Plant response rating, Cotton: 0
[8]; Rate 140 g/ha
  Plant response rating, Cotton: 70
[9]; Rate 35 g/ha
  Plant response rating, Field bindweed: 100
[9]; Rate 70 g/ha
  Plant response rating, Field bindweed: 100
[9]; Rate 140 g/ha
  Plant response rating, Field bindweed: 100
[10]; Rate 35 g/ha
  Plant response rating, Purple nutsedge: 0
[10]; Rate 70 g/ha
  Plant response rating, Purple nutsedge: 5
[10]; Rate 140 g/ha
  Plant response rating, Purple nutsedge: 10

Source: patent publication US6525001B1, “Substituted pyrimidine and pyridine herbicides” (Mid-American Commercialization Corporation, priority 1997, dated 2003)
